Data reported in PubChem BioAssay AID1845215 (Molecular Pharmacology Branch, DTP, NCI, 2023).
Calls of active or inactive are those of the source. The calls were made as follows: active = viability on the fitted dose curve at most 10% of control; inactive = the rest.

System: SW 1271 complex tumor spheroid viability
Experiment: Anticancer human tumor SW 1271 cell line growth inhibition;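 as to IC50: spheroids exposed to agents for seven days before readout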;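 as to viability, T/C: spheroids exposed to agents for seven days before readout; percent of DMSO vehicle control luminescence so 100% = vehicle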
Settings: for IC50: curve of first compound; for viability, T/C: stronger effect = lower value
How it was run: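 Single agents and combinations were tested on spheroids built from tumor cells plus HUVEC and hMSC, at half-log dilutions starting at or near clinical Cmax, else 10 microM; final DMSO 0.25% (v/v).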

[1] = second compound 1 µM, first compound 0.0949 µM
[2] = second compound 1 µM, first compound 0.3 µM
[3] = second compound 1 µM, first compound 0.949 µM
[4] = second compound 1 µM, first compound 3 µM
[5] = second compound 3.16 µM, first compound 0.0949 µM
[6] = second compound 3.16 µM, first compound 0.3 µM
[7] = second compound 3.16 µM, first compound 0.949 µM
[8] = second compound 3.16 µM, first compound 3 µM
[9] = second compound 10 µM, first compound 0.0949 µM
[10] = second compound 10 µM, first compound 0.3 µM
[11] = second compound 10 µM, first compound 0.949 µM
[12] = second compound 10 µM, first compound 3 µM
[13] = second compound 31.6 µM, first compound 0.0949 µM
[14] = second compound 31.6 µM, first compound 0.3 µM
[15] = second compound 31.6 µM, first compound 0.949 µM
[16] = second compound 31.6 µM, first compound 3 µM
[17] = second compound 100 µM, first compound 0.0949 µM
[18] = second compound 100 µM, first compound 0.3 µM
[19] = second compound 100 µM, first compound 0.949 µM
[20] = second compound 100 µM, first compound 3 µM
[21] = second compound 30 pM, first compound 0.0316 µM
[22] = second compound 30 pM, first compound 0.1 µM
[23] = second compound 30 pM, first compound 0.316 µM
[24] = second compound 30 pM, first compound 1 µM
[25] = second compound 30 pM, first compound 3.16 µM
[26] = second compound 30 pM, first compound 10 µM
[27] = second compound 94.9 pM, first compound 0.0316 µM
[28] = second compound 94.9 pM, first compound 0.1 µM
[29] = second compound 94.9 pM, first compound 0.316 µM
[30] = second compound 94.9 pM, first compound 1 µM
[31] = second compound 94.9 pM, first compound 3.16 µM
[32] = second compound 94.9 pM, first compound 10 µM
[33] = second compound 0.0003 µM, first compound 0.0316 µM
[34] = second compound 0.0003 µM, first compound 0.1 µM
[35] = second compound 0.0003 µM, first compound 0.316 µM
[36] = second compound 0.0003 µM, first compound 1 µM
[37] = second compound 0.0003 µM, first compound 3.16 µM
[38] = second compound 0.0003 µM, first compound 10 µM
[39] = second compound 0.000949 µM, first compound 0.0316 µM
[40] = second compound 0.000949 µM, first compound 0.1 µM
[41] = second compound 0.000949 µM, first compound 0.316 µM
[42] = second compound 0.000949 µM, first compound 1 µM
[43] = second compound 0.000949 µM, first compound 3.16 µM
[44] = second compound 0.000949 µM, first compound 10 µM
[45] = second compound 0.003 µM, first compound 0.0316 µM
[46] = second compound 0.003 µM, first compound 0.1 µM
[47] = second compound 0.003 µM, first compound 0.316 µM
[48] = second compound 0.003 µM, first compound 1 µM
[49] = second compound 0.003 µM, first compound 3.16 µM
[50] = second compound 0.003 µM, first compound 10 µM

With O=C(c1cc(Cc2n[nH]c(=O)c3ccccc23)ccc1F)N1CCN(C(=O)C2CC2)CC1 + Cn1nnc2c(C(N)=O)ncn2c1=O the IC50 (second compound 1 µM) was 2200 nM, the IC50 (second compound 3.16 µM) was 2110 nM and the IC50 (second compound 10 µM) was 1640 nM. It also gave an IC50 (second compound 31.6 µM) of 443 nM, an IC50 (second compound 100 µM) of less than 94.9 nM and a viability, T/C [1] of 95.3%. It also gave a viability, T/C [2] of 78.7%, a viability, T/C [3] of 69.1% and a viability, T/C [4] of 45.7%. The viability, T/C (second compound 1 µM, first compound 9.49 µM) was 24.4%, the viability, T/C (second compound 1 µM, first compound 30 µM) was 32.5% and the viability, T/C [5] was 86.3%. For the same compound, the viability, T/C [6] was 82.2%, the viability, T/C [7] was 70.7% and the viability, T/C [8] was 41%. The viability, T/C (second compound 3.16 µM, first compound 9.49 µM) was 33%, the viability, T/C (second compound 3.16 µM, first compound 30 µM) was 34.4% and the viability, T/C [9] was 95.6%. The viability, T/C [10] was 86.2%, the viability, T/C [11] was 63.2% and the viability, T/C [12] was 34.5%. The viability, T/C (second compound 10 µM, first compound 9.49 µM) was 34.4%, the viability, T/C (second compound 10 µM, first compound 30 µM) was 27% and the viability, T/C [13] was 82.5%. The viability, T/C [14] was 58.1%, the viability, T/C [15] was 33.9% and the viability, T/C [16] was 33.1%. The viability, T/C (second compound 31.6 µM, first compound 9.49 µM) was 33.5%, the viability, T/C (second compound 31.6 µM, first compound 30 µM) was 27.6% and the viability, T/C [17] was 35.1%. The viability, T/C [18] was 26.4%, the viability, T/C [19] was 29% and the viability, T/C [20] was 32.2%. It also gave a viability, T/C (second compound 100 µM, first compound 9.49 µM) of 28.8% and a viability, T/C (second compound 100 µM, first compound 30 µM) of 28.2%.

For COc1ccc([C@@H](O)c2cc(-c3ncnc4cc(N5CCOCC5)ccc34)c(F)cc2Cl)nn1 + COc1cc2c(cc1O)CCNC21CSC2c3c(OC(C)=O)c(C)c4c(c3C(COC1=O)N1C(O)C3Cc5cc(C)c(OC)c(O)c5C(C21)N3C)OCO4, the IC50 (second compound 30 pM) was 1080 nM, the IC50 (second compound 94.9 pM) was 168 nM and the IC50 (second compound 0.0003 µM) was less than 31.6 nM. For the same compound, the IC50 (second compound 0.000949 µM) was less than 31.6 nM, the IC50 (second compound 0.003 µM) was less than 31.6 nM and the viability, T/C [21] was 84.9%. It also gave a viability, T/C [22] of 86.9%, a viability, T/C [23] of 77.4% and a viability, T/C [24] of 51.1%. It also gave a viability, T/C [25] of 21.7%, a viability, T/C [26] of 6.57% and a viability, T/C [27] of 71.1%. It also gave a viability, T/C [28] of 51.8%, a viability, T/C [29] of 39.6% and a viability, T/C [30] of 33.5%. For the same compound, the viability, T/C [31] was 25.9%, the viability, T/C [32] was 4.84% and the viability, T/C [33] was 35.7%. It also gave a viability, T/C [34] of 33.3%, a viability, T/C [35] of 31.1% and a viability, T/C [36] of 17.6%. For the same compound, the viability, T/C [37] was 1.97%, the viability, T/C [38] was 0.12% and the viability, T/C [39] was 2.95%. For the same compound, the viability, T/C [40] was 2.6%, the viability, T/C [41] was 1.24% and the viability, T/C [42] was 0.04%. The viability, T/C [43] was 0.02%, the viability, T/C [44] was 0.1% and the viability, T/C [45] was 0.1%. It also gave a viability, T/C [46] of 0.08%, a viability, T/C [47] of 0.08% and a viability, T/C [48] of 0.08%. It also gave a viability, T/C [49] of 0.09% and a viability, T/C [50] of 0.15%.

For COc1cc(C)[nH]c(=O)c1CN1CCc2c(Cl)cc(C(OC)C3COC3)c(Cl)c2C1=O (stereo not given) + COc1cc2c(cc1O)CCNC21CSC2c3c(OC(C)=O)c(C)c4c(c3C(COC1=O)N1C(O)C3Cc5cc(C)c(OC)c(O)c5C(C21)N3C)OCO4, the IC50 (second compound 30 pM) was greater than 10000 nM, the IC50 (second compound 94.9 pM) was 5220 nM and the IC50 (second compound 0.0003 µM) was less than 31.6 nM. The IC50 (second compound 0.000949 µM) was less than 31.6 nM, the IC50 (second compound 0.003 µM) was less than 31.6 nM and the viability, T/C [21] was 101%. For the same compound, the viability, T/C [22] was 96%, the viability, T/C [23] was 96.4% and the viability, T/C [24] was 89.6%. It also gave a viability, T/C [25] of 86.8%, a viability, T/C [26] of 77.1% and a viability, T/C [27] of 65.9%. The viability, T/C [28] was 75.3%, the viability, T/C [29] was 67.4% and the viability, T/C [30] was 64.4%. It also gave a viability, T/C [31] of 57%, a viability, T/C [32] of 40.9% and a viability, T/C [33] of 33.3%. The viability, T/C [34] was 37%, the viability, T/C [35] was 34.2% and the viability, T/C [36] was 38.3%. For the same compound, the viability, T/C [37] was 36.6%, the viability, T/C [38] was 37.1% and the viability, T/C [39] was 5.93%. It also gave a viability, T/C [40] of 5.35%, a viability, T/C [41] of 4.91% and a viability, T/C [42] of 3.61%. For the same compound, the viability, T/C [43] was 7.88%, the viability, T/C [44] was 2.67% and the viability, T/C [45] was 0.11%. For the same compound, the viability, T/C [46] was 0.12%, the viability, T/C [47] was 0.11% and the viability, T/C [48] was 0.11%. It also gave a viability, T/C [49] of 0.11% and a viability, T/C [50] of 0.16%.

CNCc1ccc(-c2cc(-c3nc(-c4ccc(S(=O)(=O)C(C)C)cc4)cnc3N)on2)cc1 + Cn1nnc2c(C(N)=O)ncn2c1=O gave an IC50 (second compound 1 µM) of 213 nM, an IC50 (second compound 3.16 µM) of 170 nM and an IC50 (second compound 10 µM) of 185 nM. It also gave an IC50 (second compound 31.6 µM) of 174 nM, an IC50 (second compound 100 µM) of 52.4 nM and a viability, T/C (second compound 1 µM, first compound 0.00949 µM) of 105%. The viability, T/C (second compound 1 µM, first compound 0.03 µM) was 102%, the viability, T/C [1] was 98.8% and the viability, T/C [2] was 29.5%. For the same compound, the viability, T/C [3] was 7.14%, the viability, T/C [4] was 0.1% and the viability, T/C (second compound 3.16 µM, first compound 0.00949 µM) was 109%. For the same compound, the viability, T/C (second compound 3.16 µM, first compound 0.03 µM) was 106%, the outcome [5] was “inactive” and the viability, T/C [6] was 23.8%. It also gave a viability, T/C [7] of 7.34%, a viability, T/C [8] of 0.12% and a viability, T/C (second compound 10 µM, first compound 0.00949 µM) of 99.1%. The viability, T/C (second compound 10 µM, first compound 0.03 µM) was 105%, the viability, T/C [9] was 89.7% and the viability, T/C [10] was 20.8%. The viability, T/C [11] was 5.82%, the viability, T/C [12] was 0.11% and the viability, T/C (second compound 31.6 µM, first compound 0.00949 µM) was 115%. For the same compound, the viability, T/C (second compound 31.6 µM, first compound 0.03 µM) was 82.3%, the viability, T/C [13] was 75.5% and the viability, T/C [14] was 17.5%. It also gave a viability, T/C [15] of 37.5%, a viability, T/C [16] of 0.15% and a viability, T/C (second compound 100 µM, first compound 0.00949 µM) of 93.7%. It also gave a viability, T/C (second compound 100 µM, first compound 0.03 µM) of 69.8%, a viability, T/C [17] of 29.5% and a viability, T/C [18] of 9.36%. For the same compound, the viability, T/C [19] was 29.7% and the viability, T/C [20] was 0.18%.
